Where two headings read alike, the source gives them in different places.
Assays:
[1] = target: NR4A2 ligand binding domain (LBD) (Homo sapiens, UniProt P43354); assay: Ligand-induced quenching of NR4A2 LBD tryptophan fluorescence
Description: Quenching of NR4A1 Tryptophan Fluorescence by Direct Ligand Binding. Tryptophan fluorescence spectra were obtained as described herein. Briefly, histidine-tagged ligand binding domain (LBD) of NR4A1 at a final concentration of 0.5 μmol/L in 1.0 mL of phosphate-buffered saline (PBS, pH 7.4) was used for fluorescence measurements. The protein was incubated for 3 min at 25 °C in a temperature-controlled (Quantum Northwest TC125) fluorescence spectrophotometer (Varian Cary Eclipse). […] Ligand only fluorescence intensity at each ligand concentration was used to correct the NR4A1 tryptophan fluorescence intensity as described in the above references.
Accordingly, ligand binding assay for NR4A1 and NR4A2 which measures ligand-induced quenching of tryptophan fluorescence by the ligand were developed to further characterize activity with respect to NR4A1 and NR4A2. A tryptophane residue is located in the ligand binding domain (LBD) of both receptors and the LBD of the receptor is used in the binding assay.

[2] = test system: vasoactive intestinal peptide (VIP) in pancreatic cancer cells; details: initial (background) work; cited from earlier work
15037 cells = assay: 3D tumor spheroid invasion assay; details: 10 μM, vs DMSO
Description: Three-Dimensional (3D) Tumor Spheroid Invasion Assay. The cells were suspended in the complete medium (2×10^4 cells/ml). […] The plate was transferred to the incubator for 1 hr and 100 μl of the complete media containing 3 times the desired final concentration of compounds was supplemented and then incubated for 3-5 days followed by fixation in 4% formaldehyde. Spheroid invasion was determined by measuring the cross-sectional areas of the spheroid center and the rim of invaded cells using ImageJ.

[3] = previous studies, cited from earlier work
glioblastoma cells [4] = assay: Western blot of apoptosis markers in whole cell lysates; assay type: cell-based, human
Description: Western Blot Analysis. 17008, 15037, 14104s, 14015s, 15049, U87-MG, A172, T98G, and CCF-STTG1 cells were seeded at density of 1.5×10^5 per ml in 6 well plates and treated with various concentration of compounds and whole cell proteins were extracted using RIPA lysis buffer containing 10 mM Tris-HCl (pH 7.4), 150 mM NaCl, 1 mM ethylenediaminetetraacetic acid (EDTA), 1% Triton X-100 (w/v), 0.5% sodium deoxycholate and 0.1% sodium dodecylsulphate (SDS) with protease and phosphatase inhibitor cocktail. Protein concentrations were measured using Lowry's method and equal amounts of protein were separated in 10% and 15% SDS-PAGE and transferred to a Polyvinylidene difluoride (PVDF) membrane. PVDF membranes were incubated overnight at 4° C. with primary antibodies in 5% skimmed milk and incubated for 2-3 hr with secondary antibodies conjugated with horseradish peroxidase (HRP). Membranes were then exposed to HRP-substrate and immune reacted proteins were detected with chemiluminescence reagent.
(§1) Glioblastoma cells were treated with different concentrations of 4-Cl (FIG. 6A), 3-CF3-4-Cl (FIG. 6B), and 2-OH-4-Br (FIG. 6C) and effects on induction of Annexin V were determined as outlined herein. Glioblastoma cells were treated with different concentrations of NR4A2 antagonists and whole cell lysates were analyzed for markers of apoptosis by western blots.

glioblastoma cells [5] = assay: Measurement of apoptosis (Annexin V staining); assay type: cell-based, human; details: 24 hr
Description: Measurement of Apoptosis (Annexin V Staining). Cancer cells were seeded at density of 1.5×10^5 per ml in 6 well plates and treated with either vehicle (DMSO) or compounds for 24 hr.
as §1

NR4A2 [6] = details: Panc1 / pancreatic cancer cells
Description: (§2) Transactivation Assay. Cells (8×10^4) per well were plated on 12-well plates in DMEM/F-12 supplemented with 2.5% charcoal-stripped FBS and 0.22% sodium bicarbonate. After 24 h growth, various amounts of DNA [i.e., UASx5-Luc (400 ng), GAL4-Nurr1 (40 ng) and β-gal (40 ng)] were cotransfected into each well by Lipofectamine 2000 reagent (Invitrogen, Carlsbad, Calif.) according to the manufacturer's protocol. After 5-6 hr of transfection, cells were treated with plating media (as above) containing either solvent (DMSO) or the indicated concentration of compounds for 24 hr. Cells were then lysed using a freeze-thaw protocol and 30 μL of cell extract was used for luciferase and β-gal assays. LumiCount (Packard, Meriden, Conn.) was used to quantify luciferase and β-gal activities. Luciferase activity values were normalized against corresponding (3-gal activity values as well as protein concentrations determined by Lowry's Method.

NR4A2 [7] = test system: NR4A2
Description: as §2

[8] = test system: U87-MG cells as xenografts; assay: Xenograft study; assay type: in vivo, athymic nu/nu mice
Description: Xenograft Study. Female athymic nu/nu mice (4-6 weeks old) were purchased from Harlan Laboratories (Houston, TX). U87-MG cells (1×10^6) were harvested in 100 μl of DMEM and suspended in ice-cold Matrigel (1:1 ratio) and s.c. injected to either side of the flank area of the mice. After one week of tumor cell inoculation, mice were divided into two groups of 5 animals each. The first group received 100 μL of vehicle (corn oil), and second group of animals received an injection of 30 mg/kg/day of C-DIM 12 in 100 μl volume of corn oil by i.p. for three weeks. All mice were weighed once a week over the course of treatment to monitor changes in body weight. Tumor volumes could not be determined over the period of treatment because xenografted tumors were relatively deep. After three weeks of treatment, mice were sacrificed and tumor weights were determined.

dopaminergic neurons = details: in vivo, previous studies; cited from earlier work
[9] = test system: vasoactive intestinal peptide (VIP) gene expression in Panc1 cells; assay: VIP gene expression by quantitative PCR in Panc1 cells
Description: (§3) The effects of bis-indole and quinoline derivatives on activation of the NR4A2 regulated genes vasoactive intestinal peptide (VIP) was investigated. […] Relative expression levels of VIP were determined by quantitative PCR analysis. Results are expressed as means±SD for at least six separate determinations for each treatment.

[10] = test system: vasoactive intestinal peptide (VIP) gene expression in Panc28 cells; assay: VIP gene expression by quantitative PCR in Panc28 cells
Description: as §3

NR4A1 LBD = target: T1, NR4A1 LBD (Homo sapiens, UniProt P22736); assay: NR4A1/bisANS fluorescence binding
T1 construct: histidine tag
Description: The binding affinity (Kd) and binding stoichiometry (Bmax) of NR4A1/bisANS were determined essentially as described in FEBS Journal, 2014, 281, 2266-2283. For NR4A1/bisANS the binding affinity (Kd) was determined to be […] and the binding stoichiometry (Bmax) was determined to be 0.80 mol bisANS/mol NR4A1. The ability of ligand to displace bisANS was analyzed essentially as described in FEBS Journal, 2014, 281, 2266-2283. Briefly, histidine-tagged NR4A1 LBD (final concentration=0.05 μmon PBS, pH 7.4) was incubated at 25° C. for 3 min in the presence of 5.0 μmol bisANS/L. The bisANS fluorescence spectrum was obtained utilizing a Varian Cary Eclipse fluorescence spectrophotometer with an excitation wavelength of 365 nm (excitation slit width=5 nm) and an emission wavelength range of 400-600 nm (emission slit width=5 nm). Ligand titration was accomplished as described above for direct ligand binding using a stock ligand concentration of 10 mmol ligand/L ethanol. Addition of ethanol only had no effect on NR4A1/bisANS fluorescence (data not shown). […] Ligand/bisANS fluorescence intensity at each ligand concentration was used to correct the NR4A1/bisANS/ligand fluorescence intensity as described in the above reference.

NR4A2 ligand binding domain (LBD), sequence (P43354 360-595 limits assumed, species assumed): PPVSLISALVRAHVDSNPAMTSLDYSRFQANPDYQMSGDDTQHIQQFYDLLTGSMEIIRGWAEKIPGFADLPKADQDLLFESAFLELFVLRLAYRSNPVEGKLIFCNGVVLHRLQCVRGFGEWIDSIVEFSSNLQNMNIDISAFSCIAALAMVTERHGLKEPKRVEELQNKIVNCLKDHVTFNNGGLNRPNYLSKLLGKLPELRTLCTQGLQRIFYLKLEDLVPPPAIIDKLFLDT
T1 sequence (P22736 360-595 limits assumed, species assumed): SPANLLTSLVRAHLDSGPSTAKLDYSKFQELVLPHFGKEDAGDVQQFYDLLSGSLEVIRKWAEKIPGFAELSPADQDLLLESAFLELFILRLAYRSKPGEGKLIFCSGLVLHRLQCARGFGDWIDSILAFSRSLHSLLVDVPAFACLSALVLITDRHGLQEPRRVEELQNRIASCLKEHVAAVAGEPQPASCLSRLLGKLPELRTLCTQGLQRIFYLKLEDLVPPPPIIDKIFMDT

Structure (SMILES) | Binding to NR4A2 (quenching of LBD-Trp), in words [1] | Cleavage of caspase 7, 8 and PARP (glioblastoma cells [4]) | Annexin V staining (glioblastoma cells [5]) | NR4A2-dependent transactivation (NR4A2 [6]) | further results
Clc1ccccc1C(c1c[nH]c2ccccc12)c1c[nH]c2ccccc12 [CDIM-2-Cl] | gave similar results |  |  |  | 
Clc1cccc(C(c2c[nH]c3ccccc23)c2c[nH]c3ccccc23)c1 [CDIM-3-Cl] | gave similar results |  |  |  | 
Brc1ccc(C(c2c[nH]c3ccccc23)c2c[nH]c3ccccc23)cc1 [CDIM-4-Br, 1-bis(3′indolyl)-1-(p-bromophenyl)methane] |  |  |  |  | Induction of VIP in pancreatic cancer cells [2]: induced vasoactive intestinal peptide (VIP)
Clc1ccc(C(c2c[nH]c3ccccc23)c2c[nH]c3ccccc23)cc1 [CDIM-4-Cl] | do not quench the LBD-Trp | cleaved caspase 7, 8 and PARP cleavage | induced Annexin V staining | activated NR4A2-dependent transactivation | Tumor spheroid invasion (15037 cells): inhibited tumor spheroid invasion; Crossing of the blood-brain barrier [3]: cross the blood-brain barrier; Crossing of the blood-brain barrier ([3]; listed as DIM-C-pPhCl): crosses the blood-brain barrier and accumulates in the brain; NR4A2-dependent transactivation in GBM cells (FIGS. 4A-4C) (NR4A2 [7]): inhibited NR4A2-dependent transactivation; Tumor weight ([8]; 30 mg/kg/day i.p. for three weeks, athymic nude mice bearing U87-MG xenograft): significantly decreased tumor weight; Cleaved caspase 8 in tumors ([8]; 30 mg/kg/day, western blot of tumor lysates vs vehicle controls): significant upregulation of cleaved caspase 8; MPTP-induced loss of dopaminergic neurons (dopaminergic neurons): inhibited; Induction of VIP in pancreatic cancer cells [2]: induced vasoactive intestinal peptide (VIP)
Oc1cc(Br)ccc1C(c1c[nH]c2ccccc12)c1c[nH]c2ccccc12 [Ligand 2-OH-4-Br] |  | cleaved caspase 7, 8 and PARP cleavage | induced Annexin V staining | induced NR4A2-dependent transactivation | Induction of VIP expression ([9]; bis-indole analogs 5, 10 and 15 μM, CQ 100, 150 and 200 μM, AQ 50, 75 and 100 μM): ≤ 330 fold
FC(F)(F)c1cc(C(c2c[nH]c3ccccc23)c2c[nH]c3ccccc23)ccc1Cl [Ligand 3-CF3-4-Cl] |  | cleaved caspase 7, 8 and PARP cleavage | induced Annexin V staining | induced NR4A2-dependent transactivation | 
Cn1cc(C(c2ccc(O)cc2)c2cn(C)c3ccccc23)c2ccccc21 [N—Me-4-OH] |  |  |  | induced NR4A2-dependent transactivation | Induction of VIP, in words [10]: more potent inducer of VIP in Panc1 and Panc28 cells than either CQ or AQ; Induction of VIP, in words [9]: more potent inducer of VIP in Panc1 and Panc28 cells than either CQ or AQ
O=S(=O)(O)c1cccc2c(-c3ccc(Nc4ccccc4)c4c(S(=O)(=O)O)cccc34)ccc(Nc3ccccc3)c12 [bisANS] |  |  |  |  | NR4A1/bisANS binding stoichiometry (Bmax) (NR4A1 LBD): 0.80 mol bisANS/mol NR4A1

From patent US20220265606A1, “ANTICANCER AGENTS” (The Texas A&M University System, priority 2019, published 2022)
